{
  "source": "ChEMBL document CHEMBL5150076",
  "about": "“Discovery of Novel Orally Bioavailable Triazoles with Potent and Broad-Spectrum Antifungal Activity In Vitro and In Vivo” (J Med Chem, 2022)",
  "format_in_all_cases": "functional",
  "key": {"Cryptococcus neoformans [1]": {"test_system": "Cryptococcus neoformans", "experiment": "Antifungal activity against Cryptococcus neoformans H99 incubated for 72 hrs by microbroth dilution method"}, "Candida albicans [2]": {"test_system": "Candida albicans", "experiment": "Antifungal activity against Candida albicans SC5314 incubated for 24 hrs by microbroth dilution method"}, "Aspergillus fumigatus": {"test_system": "Aspergillus fumigatus", "experiment": "Antifungal activity against Aspergillus fumigatus 7544 incubated for 48 hrs by microbroth dilution method"}, "Candida parapsilosis [3]": {"test_system": "Candida parapsilosis", "experiment": "Antifungal activity against Candida parapsilosis 700", "conditions": "Lodderomyces parapsilosis"}, "Candida parapsilosis [4]": {"test_system": "Candida parapsilosis", "experiment": "Antifungal activity against Candida parapsilosis 660", "conditions": "Lodderomyces parapsilosis"}, "Candida parapsilosis [5]": {"test_system": "Candida parapsilosis", "experiment": "Antifungal activity against Candida parapsilosis 90018", "conditions": "Lodderomyces parapsilosis"}, "Nakaseomyces glabratus [6]": {"test_system": "Nakaseomyces glabratus", "experiment": "Antifungal activity against Candida glabrata ATCC2001"}, "Pichia kudriavzevii [7]": {"test_system": "Pichia kudriavzevii", "experiment": "Antifungal activity against Candida krusei 397"}, "[Candida] auris [8]": {"test_system": "[Candida] auris", "experiment": "Antifungal activity against Candida auris 887", "conditions": "Candidozyma auris"}, "Candida albicans [9]": {"test_system": "Candida albicans", "experiment": "Antifungal activity against Candida albicans 14#"}, "[Candida] auris [10]": {"test_system": "[Candida] auris", "experiment": "Antifungal activity against Candida auris D12", "conditions": "Candidozyma auris"}, "Candida albicans [11]": {"test_system": "Candida albicans", "experiment": "Antifungal activity against Candida albicans 162"}, "Candida tropicalis [12]": {"test_system": "Candida tropicalis", "experiment": "Antifungal activity against Candida tropicalis 112936"}, "Candida tropicalis [13]": {"test_system": "Candida tropicalis", "experiment": "Antifungal activity against Candida tropicalis ATCC750"}, "Candida albicans [14]": {"test_system": "Candida albicans", "experiment": "Antifungal activity against Candida albicans 305"}, "Pichia kudriavzevii [15]": {"test_system": "Pichia kudriavzevii", "experiment": "Antifungal activity against Candida krusei 463"}, "Candida albicans [16]": {"test_system": "Candida albicans", "experiment": "Antifungal activity against Candida albicans 25#"}, "[Candida] auris [17]": {"test_system": "[Candida] auris", "experiment": "Antifungal activity against Candida auris BS12372", "conditions": "Candidozyma auris"}, "Candida albicans [18]": {"test_system": "Candida albicans", "experiment": "Antifungal activity against Candida albicans 12#"}, "[Candida] auris [19]": {"test_system": "[Candida] auris", "experiment": "Antifungal activity against Candida auris 791", "conditions": "Candidozyma auris"}, "Pichia kudriavzevii [20]": {"test_system": "Pichia kudriavzevii", "experiment": "Antifungal activity against Candida krusei 629"}, "Pichia kudriavzevii [21]": {"test_system": "Pichia kudriavzevii", "experiment": "Antifungal activity against Candida krusei 467"}, "Candida albicans [22]": {"test_system": "Candida albicans", "experiment": "Antifungal activity against Candida albicans 28#"}, "Candida albicans [23]": {"test_system": "Candida albicans", "experiment": "Antifungal activity against Candida albicans 20#"}, "Cryptococcus neoformans [24]": {"test_system": "Cryptococcus neoformans", "experiment": "Antifungal activity against Cryptococcus neoformans 32605"}, "Trichophyton rubrum": {"test_system": "Trichophyton rubrum", "experiment": "Antifungal activity against Trichophyton rubrum cmccftla"}, "Candida albicans [25]": {"test_system": "Candida albicans", "experiment": "Antifungal activity against Candida albicans Y0109"}, "Nakaseomyces glabratus [26]": {"test_system": "Nakaseomyces glabratus", "experiment": "Antifungal activity against Candida glabrata 537"}, "Nannizzia gypsea": {"test_system": "Nannizzia gypsea", "experiment": "Antifungal activity against Microsporum gypseum"}, "Candida parapsilosis [27]": {"test_system": "Candida parapsilosis", "experiment": "Antifungal activity against Candida parapsilosis 22019", "conditions": "Lodderomyces parapsilosis"}},
  "data": [
    {"smiles": "CC(=O)c1ccc(-n2cc([C@H](C)[C@](O)(Cn3cncn3)c3ccc(F)cc3F)nn2)cc1", "values": [
      {"measurement": "MIC", "setting": "Cryptococcus neoformans [1]", "value": 0.25, "unit": "µg/mL"},
      {"measurement": "MIC", "setting": "Candida albicans [2]", "value": 0.125, "unit": "µg/mL"},
      {"measurement": "MIC", "setting": "Aspergillus fumigatus", "value": "> 64", "unit": "µg/mL"}
    ]},
    {"smiles": "C[C@@H](c1cn(-c2c(F)c(F)cc(F)c2F)nn1)[C@](O)(Cn1cncn1)c1ccc(F)cc1F", "values": [
      {"measurement": "MIC", "setting": "Cryptococcus neoformans [1]", "value": 0.0625, "unit": "µg/mL"},
      {"measurement": "MIC", "setting": "Candida albicans [2]", "value": 0.0625, "unit": "µg/mL"},
      {"measurement": "MIC", "setting": "Aspergillus fumigatus", "value": 2, "unit": "µg/mL"}
    ]},
    {"smiles": "C[C@@H](c1cn(-c2ccc(S(C)(=O)=O)cc2)nn1)[C@](O)(Cn1cncn1)c1ccc(F)cc1F", "values": [
      {"measurement": "MIC", "setting": "Cryptococcus neoformans [1]", "value": 4, "unit": "µg/mL"},
      {"measurement": "MIC", "setting": "Candida albicans [2]", "value": 0.5, "unit": "µg/mL"},
      {"measurement": "MIC", "setting": "Aspergillus fumigatus", "value": "> 64", "unit": "µg/mL"}
    ]},
    {"smiles": "C[C@@H](c1cn(-c2ccc(OCC(F)(F)F)nc2)nn1)[C@](O)(Cn1cncn1)c1ccc(F)cc1F", "values": [
      {"measurement": "MIC", "setting": "Cryptococcus neoformans [1]", "value": 0.0625, "unit": "µg/mL"},
      {"measurement": "MIC", "setting": "Candida albicans [2]", "value": 0.0313, "unit": "µg/mL"},
      {"measurement": "MIC", "setting": "Aspergillus fumigatus", "value": 2, "unit": "µg/mL"}
    ]},
    {"smiles": "C[C@@H](c1cn(-c2ccc(OCc3ccc(C#N)cc3)cc2)nn1)[C@](O)(Cn1cncn1)c1ccc(F)cc1F", "values": [
      {"measurement": "MIC", "setting": "Candida albicans [2]", "value": 0.125, "unit": "µg/mL"},
      {"measurement": "MIC", "setting": "Aspergillus fumigatus", "value": "> 64", "unit": "µg/mL"}
    ]},
    {"smiles": "C[C@@H](c1cn(-c2ccc(OCc3ccc(C(C)(C)C)cc3)cc2)nn1)[C@](O)(Cn1cncn1)c1ccc(F)cc1F", "values": [
      {"measurement": "MIC", "setting": "Cryptococcus neoformans [1]", "value": 0.5, "unit": "µg/mL"},
      {"measurement": "MIC", "setting": "Candida albicans [2]", "value": 0.125, "unit": "µg/mL"},
      {"measurement": "MIC", "setting": "Aspergillus fumigatus", "value": "> 64", "unit": "µg/mL"}
    ]},
    {"smiles": "C[C@@H](c1cn(-c2ccc(OCC(F)(F)F)cc2)nn1)[C@](O)(Cn1cncn1)c1ccc(F)cc1F", "values": [
      {"measurement": "MIC", "setting": "Cryptococcus neoformans [1]", "value": 0.125, "unit": "µg/mL"},
      {"measurement": "MIC", "setting": "Candida albicans [2]", "value": 0.0313, "unit": "µg/mL"},
      {"measurement": "MIC", "setting": "Aspergillus fumigatus", "value": 2, "unit": "µg/mL"}
    ]},
    {"smiles": "C[C@@H](c1cn(-c2ccc(C#N)cc2)nn1)[C@](O)(Cn1cncn1)c1ccc(F)cc1F", "values": [
      {"measurement": "MIC", "setting": "Cryptococcus neoformans [1]", "value": 0.25, "unit": "µg/mL"},
      {"measurement": "MIC", "setting": "Candida albicans [2]", "value": 0.125, "unit": "µg/mL"},
      {"measurement": "MIC", "setting": "Aspergillus fumigatus", "value": "> 64", "unit": "µg/mL"}
    ]},
    {"smiles": "CCC(C)n1ncn(-c2ccc(N3CCN(c4ccc(OCC5COC(Cn6cncn6)(c6ccc(Cl)cc6Cl)O5)cc4)CC3)cc2)c1=O", "note": "(stereo unspecified) [ITRACONAZOLE]", "values": [
      {"measurement": "MIC", "setting": "Candida parapsilosis [3]", "value": 4, "unit": "µg/mL"},
      {"measurement": "MIC", "setting": "Candida parapsilosis [4]", "value": 1, "unit": "µg/mL"},
      {"measurement": "MIC", "setting": "Candida parapsilosis [5]", "value": 0.5, "unit": "µg/mL"},
      {"measurement": "MIC", "setting": "Nakaseomyces glabratus [6]", "value": 2, "unit": "µg/mL"},
      {"measurement": "MIC", "setting": "Pichia kudriavzevii [7]", "value": 2, "unit": "µg/mL"},
      {"measurement": "MIC", "setting": "[Candida] auris [8]", "value": 4, "unit": "µg/mL"},
      {"measurement": "MIC", "setting": "Candida albicans [9]", "value": "> 64", "unit": "µg/mL"},
      {"measurement": "MIC", "setting": "[Candida] auris [10]", "value": 4, "unit": "µg/mL"},
      {"measurement": "MIC", "setting": "Candida albicans [11]", "value": "> 64", "unit": "µg/mL"},
      {"measurement": "MIC", "setting": "Candida tropicalis [12]", "value": "> 16", "unit": "µg/mL"},
      {"measurement": "MIC", "setting": "Candida tropicalis [13]", "value": "> 16", "unit": "µg/mL"},
      {"measurement": "MIC", "setting": "Candida albicans [14]", "value": "> 16", "unit": "µg/mL"},
      {"measurement": "MIC", "setting": "Pichia kudriavzevii [15]", "value": 1, "unit": "µg/mL"},
      {"measurement": "MIC", "setting": "Candida albicans [16]", "value": "> 64", "unit": "µg/mL"},
      {"measurement": "MIC", "setting": "[Candida] auris [17]", "value": 1, "unit": "µg/mL"},
      {"measurement": "MIC", "setting": "Candida albicans [18]", "value": "> 64", "unit": "µg/mL"},
      {"measurement": "MIC", "setting": "[Candida] auris [19]", "value": 4, "unit": "µg/mL"},
      {"measurement": "MIC", "setting": "Pichia kudriavzevii [20]", "value": 1, "unit": "µg/mL"},
      {"measurement": "MIC", "setting": "Pichia kudriavzevii [21]", "value": 2, "unit": "µg/mL"},
      {"measurement": "MIC", "setting": "Candida albicans [22]", "value": 0.5, "unit": "µg/mL"},
      {"measurement": "MIC", "setting": "Candida albicans [23]", "value": 0.5, "unit": "µg/mL"}
    ]},
    {"smiles": "C[C@@H](c1cn(-c2cc(F)ccc2F)nn1)[C@](O)(Cn1cncn1)c1ccc(F)cc1F", "values": [
      {"measurement": "MIC", "setting": "Cryptococcus neoformans [24]", "value": 0.0313, "unit": "µg/mL"},
      {"measurement": "MIC", "setting": "Cryptococcus neoformans [1]", "value": 0.0625, "unit": "µg/mL"},
      {"measurement": "MIC", "setting": "Candida albicans [2]", "value": 0.0625, "unit": "µg/mL"},
      {"measurement": "MIC", "setting": "Trichophyton rubrum", "value": 0.25, "unit": "µg/mL"},
      {"measurement": "MIC", "setting": "Candida albicans [25]", "value": 0.0313, "unit": "µg/mL"},
      {"measurement": "MIC", "setting": "Nakaseomyces glabratus [26]", "value": 0.0625, "unit": "µg/mL"},
      {"measurement": "MIC", "setting": "Nannizzia gypsea", "value": 2, "unit": "µg/mL"},
      {"measurement": "MIC", "setting": "Candida parapsilosis [27]", "value": 0.0625, "unit": "µg/mL"},
      {"measurement": "MIC", "setting": "Aspergillus fumigatus", "value": 2, "unit": "µg/mL"}
    ]},
    {"smiles": "C[C@@H](c1cn(-c2ccc(F)c(F)c2)nn1)[C@](O)(Cn1cncn1)c1ccc(F)cc1F", "values": [
      {"measurement": "MIC", "setting": "Cryptococcus neoformans [1]", "value": 0.125, "unit": "µg/mL"},
      {"measurement": "MIC", "setting": "Candida albicans [2]", "value": 0.0625, "unit": "µg/mL"},
      {"measurement": "MIC", "setting": "Aspergillus fumigatus", "value": 8, "unit": "µg/mL"}
    ]}
  ]
}
